Assay results published in patent US20140065119A1, “METHODS AND COMPOSITIONS COMPRISING CYCLIC ANALOGUES OF HISTATIN 5 FOR TREATING WOUNDS” (THE UNIVERSITY OF WESTERN ONTARIO, priority 2010, published 2014).
Positions of bridges follow the written chain, without caps; N, C: chain ends. Residues, ends and D or L forms follow the SMILES beside them.

What was measured:
phosphorylated ERK 1, 2 = assay: Western blot for phosphorylated ERK 1, 2 in primary cells; format: cell-based, human; settings: 50 μM, primary cell lysates
Description: (§1) Toxicological studies of DB2121 in human cells were also undertaken. Primary human neonatal foreskin epithelial cells were used to examine DB2121 toxicity, using a method as described in Min et al. 2004. Nat Biotechnol 22:717-23, the contents of which are incorporated herein by reference. Briefly, when the cells were in log phase, (A) 50 μM DB2121, B) 50 μM Histatin H5, (C) 50 μM ketoconazole, or (D) DMSO was added to the culture medium. At 18 and 36 hours following addition of compound, the foreskin epithelial cells were imaged using phase contract microscopy at 20× magnification. Immediately following the image analysis, proteins were extracted, separated on SDS-PAGE gels, Western blotted, and probed for phosphorylated and non-phosphorylated ERK 1, 2 to monitor cell spreading/migration and/or proliferation of the foreskin keratinocytes. The experiments was repeated three times.
It was then investigated whether or not these phenotypes were reflected at the molecular level. The primary cells were lysed and monitored for a marker of proliferation namely, phosphorylated ERK 1, 2.

[1] = tested on: Primary human neonatal foreskin epithelial cells; assay: Toxicity in primary cells, phase contrast morphology; format: cell-based
Description: as §1

[2] = Stability in human saliva in vitro by mass spectrometry; format: in vitro ADME; settings: 1 uM, 37° C.
Description: DB2121 cyclic analogue was determined to be stable in vitro in human saliva for at least 72 hours as determined by mass spectrometry. The cyclic analogue was incubated in human saliva at a concentration of 1 uM and at a temperature of 37° C. in vitro. At various time points from 0 to 72 hours, 1.0 ul aliquots were taken and injected directly into a Micromass Quattro Micro mass spectrometer. Data was collected for a total of 3 minutes. The data was then processed using Mass Lynx 4.0 Analysis software.
The expected average mass of the cyclic histatin analogue in its active form is expected to be 2557.93. […] The peaks within an acceptable error of approximately 1 mass unit corresponding to cyclic histatin analogue were 2556.95 at 0 hours, 2557.65 at 24 hours, and 2557.10 at 72 hours incubation.

[3] = Tolerability in adult rats, intra-venous injection; format: in vivo
Description: (§2) In addition, mice were able to withstand a concentration of 15 mg/kg of DB2121 when injected via an intra-peritoneal route. When injected into adult rats, a concentration of up to and including 1.5 mg/kg caused no harm when injected intra-venously.

[4] = Tolerability in mice, intra-peritoneal injection; format: in vivo
Description: as §2

[5] = tested on: primary human foreskin epithelial cell culture; assay: Viable cell number (trypan exclusion) in primary cell culture; format: cell-based; settings: various concentrations, 0, 36 and 72 hours; vs 50 μM ketoconazole; FIG. 3
Description: To determine range of non-toxic concentrations of DB2121, various concentrations of DB2121, 50 μM ketoconazole or DMSO as a control were separately added to primary human foreskin epithelial cell culture. At 0, 36 and 72 hours after addition, the epithelial cells were titrated off the culture plate and the viable cell number was determined. The experiment was performed in triplicate. At 72 hours, the foreskin epithelial cells exposed to the various compounds were imaged at 20× magnification using phase contrast microscopy. For cell counting, the epithelial cells were stained with trypan exclusion stain to monitor cell viability.

Compound | ERK 1, 2 activation (phosphorylated ERK 1, 2) vs control (phosphorylated ERK 1, 2) | cell morphology ([1]; 50 μM, 18 and 36 hours, phase contrast 20×) | time stable in human saliva [2] | concentration (dose) that caused no harm [3] [mg/kg] | concentration (dose) mice were able to withstand [4] [mg/kg] | toxicity in primary cultured cells (viable cell number) [5] | toxicity to human primary cells ([1]; working concentrations of 50 μM, conclusion from morphology and ERK studies)
CC(=O)N1CCN(c2ccc(OCC3COC(Cn4ccnc4)(c4ccc(Cl)cc4Cl)O3)cc2)CC1 (centres unmarked) [ketoconazole, Ketoconazole, reference compound] | Significant inhibition of ERK 1, 2 activation | morphologically normal except when treated with ketoconazole |  |  |  |  | 
N=C(N)NCCC[C@H](NC(=O)[C@H](Cc1c[nH]cn1)NC(=O)[C@@H]1CSSC[C@H](NC(=O)[C@H](Cc2c[nH]cn2)NC(=O)[C@H](Cc2c[nH]cn2)NC(=O)[C@@H](N)CCCNC(=N)N)C(=O)N[C@@H](Cc2ccc(O)cc2)C(=O)N[C@@H](CCCCN)C(=O)N[C@@H](CCCNC(=N)N)C(=O)N[C@@H](CCCCN)C(=O)N[C@@H](Cc2ccccc2)C(=O)N[C@@H](Cc2c[nH]cn2)C(=O)N[C@@H](CCC(=O)O)C(=O)N[C@@H](CCCCN)C(=O)N[C@@H](Cc2c[nH]cn2)C(=O)N[C@@H](Cc2c[nH]cn2)C(=O)N1)C(=O)NCC(=O)N[C@@H](Cc1ccc(O)cc1)C(=O)O [DB2121, N-RHHCYKRKFHEKHHCHRGY-C] (H-RHHCYKRKFHEKHHCHRGY-OH; disulfide 4-15; N-terminus and C-terminus assumed) | not suppressed |  | at least 72 hours | ≤ 1.5 | 15 | minimal toxicity | non-toxic
